Source: patent publication US20180311225A1, “EXTERNAL PREPARATION” (TEIKA PHARMACEUTICAL CO., LTD., priority 2015, published 2018)

Tested on: allergic reaction at the conjunctiva sites (vascular hyperpermeability) of Wistar rats
Test: Rat passive allergic conjunctivitis model, Evans blue dye leakage (absorbance at 620 nm)
Type: in vivo
Details: Example 2, FIG. 1, presence or absence of the component
Description: As a trigger solution was used a solution prepared by mixing equal volumes of 1% (w/v) ovalbumin (Grade V; manufactured by Sigma-Aldrich Co. LLC)/physiological saline (manufactured by Otsuka Pharmaceutical Co., Ltd.) and 1% (w/v) Evans blue (manufactured by Wako Pure Chemical Industries, Ltd.)/physiological saline.
As an extraction solution was used an aqueous solution of acetone (manufactured by Wako Pure Chemical Industries, Ltd.)/0.5% (w/v) sodium sulfate (manufactured by Wako Pure Chemical Industries. Ltd.) (7:3).
After 48 h, 1 mL of the trigger solution was intravenously administered to trigger an allergic reaction at the conjunctiva sites. Then, each test solution was dropped onto the eyes at 15 min before and immediately before triggering the allergic reaction (the total of 2 times). […] The overnight extraction solution was centrifuged to recover a supernatant. Absorbance of the supernatant was measured at 620 nm.
Vascular hyperpermeability caused by an allergic reaction results in leakage of Evans blue. Thus, the less the amount of leakage of the dye, the more the vascular hyperpermeability is suppressed. This should be an indicator of the antiallergic effects. The amount of leakage of dye per tissue unit (gig/g) was calculated by using a predetermined standard curve. A dye amount ratio was calculated using the following equation to give an indicator of the suppression effects. […]

SMILES	Contribution of the component to the antiallergic action when combined with ketotifen fumarate (group 6 compared with group 7, 8 or 10)
O=C([O-])O.[Na+] [sodium bicarbonate]	can contribute to an antiallergic action
[Cl-].[Na+] [sodium chloride]	can contribute to an antiallergic action
